{"source": "patent US20130079228A1", "about": "“Agricultural spray solution compositions and methods” (priority 2011, published 2013)", "test_system": "velvetleaf", "test": "efficacy of glyphosate spray on velvetleaf", "assay_type": "in vivo", "conditions": "in presence of drift reducing adjuvants, especially DR", "text": "Applicant's invention further contemplates the use of drift management adjuvants on the atomization, drift, patternation, retention, deposit formation, and efficacy of an herbicide spray. The drift of the spray particles decreases by suppressing the formation of fine droplets, i.e., <150 microns in diameter. The impact of drift reducing additives on pesticide efficacy in terms of the effect on the major phases, i.e., the larger droplets, on the dose transfer process is also considered. Two representative drift reducing adjuvants, i.e., (1) polyacrylamide polymers represented by Nalcotrol or Nalcotrol II (N or N2), and (2) biodegradable polymers represented by AgRHO DR-2000 (DR) of Rhone-Poulenc Inc. were considered in mixtures containing glyphosate.\nPattern distributions undergo significant deviations from even distributions using herbicide alone when polymers are added. […] 30% less spray is reflected from the cabbage leaves from mixtures containing DR compared to either water alone or water containing polyacrylamide polymers. Spray retention is reduced by the addition of drift reducing adjuvants. DR is better at wetting the cabbage leaves. […] The efficacy of glyphosate on velvetleaf is enhanced by the presence of drift reducing adjuvants, especially DR. […]", "data": [{"smiles": "O=C(O)CNCP(=O)(O)O", "note": "[glyphosate]", "values": [{"measurement": "efficacy of glyphosate on velvetleaf", "result": "enhanced"}]}]}
